Reference: article PMC11672294, “The Antipsychotic Drug Aripiprazole Suppresses Colorectal Cancer by Targeting LAMP2a to Induce RNH1/miR‐99a/mTOR‐Mediated Autophagy and Apoptosis” (Advanced Science, 2024)
Where a name gives a salt, the structure may show the parent alone.

The molecules below were run on HT29. Details: 72 h, relative to DMSO, 10 µM, Relative cell viability (%).
In short: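 HT29 viability used WST-1 reduction (2 h, 37 °C, A450) after 72 h of treatment; screening compounds were tested singly at 10 µM, with dimethyl sulfoxide as the comparison.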

Row | Compound | Relative cell viability (%) [%]
1 | Cc1c(-c2ccc(O)cc2)n(Cc2ccc(OCCN3CCCCCC3)cc2)c2ccc(O)cc12 [Bazedoxifene HCl] | 91.36
2 | CC/C(=C(\c1ccccc1)c1ccc(OCCN(C)C)cc1)c1ccccc1 [Tamoxifen] | 18.22
3 | COc1ccc(C[C@@H]2c3cc(OC)c(OC)cc3CC[N@+]2(C)CCC(=O)OCCCCCOC(=O)CC[N@@+]2(C)CCc3cc(OC)c(OC)cc3[C@H]2Cc2ccc(OC)c(OC)c2)cc1OC [Cisatracurium Besylate] | 127.3
4 | CN1CCN(c2ccc3nc(-c4c(N)c5c(F)cccc5[nH]c4=O)[nH]c3c2)CC1 [Dovitinib (TKI258) Lactate] | 3.419
5 | CC(C)NCC(O)COc1ccc(CCOCC2CC2)cc1 (stereo not shown) [Betaxolol] | 109.6

Same assay, conditions: 72 h, relative to DMSO; 10 µM

Row | Compound | Relative cell viability (%) [%]
6 | C[C@@H](O)[C@H]1C(=O)N2C(C(=O)O)=C(S[C@@H]3CN[C@H](CNS(N)(=O)=O)C3)[C@H](C)[C@H]12 [Doripenem Hydrate] | 88.32
7 | C=CCN1CC[C@]23c4c5ccc(O)c4O[C@H]2C(=O)CC[C@@]3(O)[C@H]1C5 [Naloxone HCl] | 95.63
8 | O=C1CCc2ccc(OCCCCN3CCN(c4cccc(Cl)c4Cl)CC3)cc2N1 [aripiprazole] | 49.03
9 | CN1C2=CC(=O)/C(=N\NC(N)=O)C=C2CC1S(=O)(=O)O (stereo not shown) [Carbazochrome sodium sulfonate (AC-17)] | 50.49
10 | CCOC(=O)[C@H](CCc1ccccc1)N[C@@H](C)C(=O)N1Cc2cc(OC)c(OC)cc2C[C@H]1C(=O)O [Moexipril HCl] | 110.2
11 | CC1CNc2c(cccc2S(=O)(=O)N[C@@H](CCCNC(=N)N)C(=O)N2CC[C@@H](C)C[C@@H]2C(=O)O)C1 (stereo partly shown) [Argatroban] | 123.2
12 | Cc1nnc(NS(=O)(=O)c2ccc(N)cc2)s1 [Sulfamethizole] | 202.3
13 | COC(=O)Nc1nc2ccc([S+]([O-])c3ccccc3)cc2[nH]1 (stereo not shown) [Oxfendazole] | 57.63
14 | CCOC(=O)c1ccc(OC(=O)CCCCCNC(=N)N)cc1 [Gabexate Mesylate] | 124.4
15 | NC(=O)c1cccnc1 [Nicotinamide (Vitamin B3)] | 113.7
16 | Cc1cn([C@H]2O[C@@H](CO)[C@H](O)[C@H]2F)c(=O)[nH]c1=O [Clevudine] | 97.09
17 | CCOC(=O)C1=C[C@@H](OC(CC)CC)[C@H](NC(C)=O)[C@@H](N)C1 [Oseltamivir Phosphate] | 60.68
18 | Cc1cccc(C)c1OCC(=O)N[C@@H](Cc1ccccc1)[C@@H](O)C[C@H](Cc1ccccc1)NC(=O)[C@H](C(C)C)N1CCCNC1=O [Lopinavir] | 55.61
19 | NC(=O)CN1CC(O)CC1=O (stereo not shown) [Oxiracetam] | 54.85
20 | CC(C)n1c(/C=C/[C@@H](O)C[C@@H](O)CC(=O)O)c(-c2ccc(F)cc2)c2ccccc21 (racemic) [Fluvastatin Sodium] | 103.4
21 | CC(C)=CCC/C(C)=C/CC/C(C)=C/CSc1ccccc1C(=O)O [Salirasib] | 84.19
22 | O=C1CCc2cc(OCCCCc3nnnn3C3CCCCC3)ccc2N1 [Cilostazol] | 80.53
23 | Cc1nnc(C(C)C)n1[C@@H]1C[C@H]2CC[C@@H](C1)N2CC[C@H](NC(=O)C1CCC(F)(F)CC1)c1ccccc1 [Maraviroc] | 135.7
24 | C[C@@H]1C[C@H]2[C@@H]3CCC4=CC(=O)C=C[C@]4(C)[C@@]3(Cl)[C@@H](O)C[C@]2(C)[C@@]1(OC(=O)c1ccco1)C(=O)CCl [Mometasone furoate] | 144.2
25 | CCN(Cc1ccncc1)C(=O)C(CO)c1ccccc1 (stereo not shown) [Tropicamide] | 144.5
26 | CNC(=C[N+](=O)[O-])NCCSCc1csc(CN(C)C)n1 [Nizatidine] | 77.97
27 | COc1cc(C)c(/C=C/C(C)=C/C=C/C(C)=C/C(=O)O)c(C)c1C [Acitretin] | 60.28
28 | O=C(NS(=O)(=O)c1ccc(Br)s1)c1ccc(Cl)cc1Cl [Tasisulam] | 94.44
29 | CC1=C(C(=O)OC(C)C)C(c2cccc([N+](=O)[O-])c2)C(C(=O)OC2CN(C(c3ccccc3)c3ccccc3)C2)=C(N)N1 (stereo not shown) [Azelnidipine] | 73.79
30 | CCN(CCCc1ccccc1)CCCc1ccccc1 [Alverine Citrate] | 78.16
31 | CCCCNc1cc(C(=O)O)cc(S(N)(=O)=O)c1Oc1ccccc1 [Bumetanide] | 61.84
32 | COc1cc2c(cc1OC)CN(CCc1ccc(NC(=O)c3cccc4c(=O)c5cccc(OC)c5[nH]c34)cc1)CC2 [Elacridar (GF120918)] | 48.29
33 | C[C@H]1O[C@H](O[C@H]2[C@H](O)[C@@H](O)[C@@H](O[C@H]3[C@H](O)[C@@H](O)C(O)O[C@@H]3CO)O[C@@H]2CO)[C@H](O)[C@@H](O)[C@@H]1N[C@H]1C=C(CO)[C@@H](O)[C@H](O)[C@H]1O (stereo partly shown) [Acarbose] | 103.9

Row | Compound | Relative cell viability (%) [%]
34 | CC(=O)OCC(=O)[C@@]12N=C(C)O[C@@H]1C[C@H]1[C@@H]3CCC4=CC(=O)C=C[C@]4(C)[C@H]3[C@@H](O)C[C@@]12C [Deflazacort] | 91.95
35 | CCC1=C(C)CN(C(=O)NCCc2ccc(S(=O)(=O)NC(=O)N[C@H]3CC[C@H](C)CC3)cc2)C1=O [Glimepiride] | 64.95
36 | CCCc1nn(C)c2c(=O)[nH]c(-c3cc(S(=O)(=O)N4CCN(C)CC4)ccc3OCC)nc12 [Sildenafil Mesylate] | 91.88
37 | Cc1c(O)cccc1C(=O)N[C@@H](CSc1ccccc1)[C@H](O)CN1C[C@H]2CCCC[C@H]2C[C@H]1C(=O)NC(C)(C)C [Nelfinavir Mesylate] | 23.94
38 | O=C(NCCO[N+](=O)[O-])c1cccnc1 [Nicorandil] | 198.8
39 | CC1=CC(=O)c2ccccc2C1=O [Menadione] | 15.16
40 | COc1ccc([C@@H]2Sc3ccccc3N(CCN(C)C)C(=O)[C@@H]2OC(C)=O)cc1 [Diltiazem HCl] | 67.8
41 | C[C@@H](NCCCc1cccc(C(F)(F)F)c1)c1cccc2ccccc12 [Cinacalcet HCl] | 2.648
42 | O=c1[nH]c(=O)n([C@H]2C[C@H](O)[C@@H](CO)O2)cc1C(F)(F)F [Trifluridine] | 53.81
43 | COc1cccc2c1C(=O)c1c(O)c3c(c(O)c1C2=O)C[C@@](O)(C(=O)CO)C[C@@H]3O[C@H]1C[C@H](N)[C@@H](O)[C@H](C)O1 [Epirubicin HCl] | 10.44
44 | C/C(=C\c1csc(C)n1)[C@@H]1C[C@@H]2O[C@]2(C)CCC[C@H](C)[C@H](O)[C@@H](C)C(=O)C(C)(C)[C@@H](O)CC(=O)O1 [Epothilone B (EPO906, Patupilone)] | 7.321
45 | CC(C)(C)c1ccc(C(=O)CCCN2CCC(OC(c3ccccc3)c3ccccc3)CC2)cc1 [Ebastine] | 13.94
46 | CN(C)[C@@H](CCOc1cccc2ccccc12)c1ccccc1 [Dapoxetine HCl] | 44.92
47 | COC(=O)C1=C(C)NC(C)=C(C(=O)OCCN(C)Cc2ccccc2)C1c1cccc([N+](=O)[O-])c1 (stereo not shown) [Nicardipine HCl] | 83.03
48 | COc1ccc(NS(=O)(=O)c2ccc(N)cc2)nn1 [Sulfamethoxypyridazine] | 72.12
49 | CNC[C@H](O)c1ccc(O)c(O)c1 [Epinephrine HCl] | 70.87
50 | CC(C)[C@H](N)C(=O)OCCOCn1cnc2c(=O)[nH]c(N)nc21 [Valaciclovir HCl] | 85.59
51 | CCOc1nc2cccc(C(=O)OC(C)OC(=O)OC3CCCCC3)c2n1Cc1ccc(-c2ccccc2-c2nnn[nH]2)cc1 (stereo not shown) [Candesartan Cilexetil] | 195.6
52 | O=C(NC[C@H]1CN(c2ccc(N3CCOCC3=O)cc2)C(=O)O1)c1ccc(Cl)s1 [Rivaroxaban] | 107.3
53 | CCOC(=O)C1=C(C)NC(C)=C(C(=O)OC)C1c1cccc(Cl)c1Cl (stereo not shown) [Felodipine] | 60.17
54 | CC(=O)OCC[N+](C)(C)C [Acetylcholine Chloride] | 93.22
55 | CC(=O)[C@H]1CC[C@H]2[C@@H]3CC=C4C[C@@H](O)CC[C@]4(C)[C@H]3CC[C@]12C [Pregnenolone] | 94.21
56 | C=CN1CCCC1=O [Povidone iodine] | 91.88
57 | N#Cc1ccc(C(c2ccc(C#N)cc2)n2cncn2)cc1 [Letrozole] | 82.09
58 | Nc1nc(F)nc2c1ncn2[C@@H]1O[C@H](COP(=O)(O)O)[C@@H](O)[C@@H]1O [Fludarabine Phosphate] | 52.49
59 | Cc1nc(Nc2ncc(C(=O)Nc3c(C)cccc3Cl)s2)cc(N2CCN(CCO)CC2)n1 [Dasatinib Monohydrate] | 20.09
60 | C=CC(=O)N1CCC(Oc2cc3c(Nc4ccc(Cl)c(Cl)c4F)ncnc3cc2OC)CC1 [Poziotinib (HM781-36B)] | 68.8

Same assay, conditions: ht29 cells, 72 h, 10 µM

Row | Compound | Relative cell viability (%) [%]
61 | C[C@]12Cc3c[nH]nc3C[C@@H]1CC[C@@H]1[C@@H]2CC[C@@]2(C)[C@H]1CC[C@]2(C)O [Stanozolol] | 83.05
